Reference: US9695180B2 (Incyte Corporation, priority 2014, dated 2017)
Read-outs that look alike come from different tables or passages of the source.

Target: LSD-1 enzyme (Homo sapiens (Human), UniProt O60341)
Assay: LANCE LSD1/KDM1A demethylase assay (LSD1 histone demethylase biochemical assay)
Protocol: Example A: LSD1 Histone Demethylase Biochemical Assay
LANCE LSD1/KDM1A demethylase assay—10 μL of 1 nM LSD-1 enzyme (ENZO BML-SE544-0050) in the assay buffer (50 mM Tris, pH 7.5, 0.01% Tween-20, 25 mM NaCl, 5 mM DTT) were preincubated for 1 hour at 25° C. with 0.8 μL compound/DMSO dotted in black 384 well polystyrene plates. […] Reactions were stopped by addition of 10 μL 1× LANCE Detection Buffer (PerkinElmer CR97-100) supplemented with 1.5 nM Eu-anti-unmodified H3K4 Antibody (PerkinElmer TRF0404), and 225 nM LANCE Ultra Streptavidin (PerkinElmer TRF102) along with 0.9 mM Tranylcypromine-HCl (Millipore 616431). After stopping the reactions plates were incubated for 30 minutes and read on a PHERAstar FS plate reader (BMG Labtech).

[1] = 1 nM LSD-1 enzyme, 1 hour preincubation at 25° C., Biotin-labeled Histone H3 peptide substrate, read-out: IC50

Compound | IC50 [nM] | IC50 [1] [nM]
CN1CCC[C@@H](COc2nc(-c3ccc(C#N)cc3)c(-c3cnc4c(cnn4C)c3)n3ccnc23)C1 [Example 54, 4-[8-{[(3R)-1-methylpiperidin-3-yl]methoxy}-5-(1-methyl-1H-pyrazolo[3,4-b]pyridin-5-yl)imidazo[1,2-a]pyrazin-6-yl]benzonitrile] | 50 to 500 | –
CN1CCC[C@@H](COc2nc(-c3ccc(C#N)cc3)c(-c3ccc(CN4CCOCC4)cc3F)n3ccnc23)C1 [Example 89, 4-(5-[2-fluoro-4-(morpholin-4-ylmethyl)phenyl]-8-{[(3R)-1-methylpiperidin-3-yl]methoxy}imidazo[1,2-a]pyrazin-6-yl)benzonitrile] | 50 to 500 | –
Cc1ccc(-c2c(-c3ccc(C#N)cc3)nc(NCCc3csc(N)n3)c3nccn23)cc1 [Example 23, 4-[8-{[2-(2-amino-1,3-thiazol-4-yl)ethyl]amino}-5-(4-methylphenyl)imidazo[1,2-a]pyrazin-6-yl]benzonitrile] | 50 to 500 | –
COc1ncc(-c2c(-c3ccc(C#N)cc3)nc(OC[C@@H]3CCCN(C)C3)c3nccn23)cc1F [Example 84, 4-(5-(5-fluoro-6-methoxypyridin-3-yl)-8-{[(3R)-1-methylpiperidin-3-yl]methoxy}imidazo[1,2-a]pyrazin-6-yl)benzonitrile] | 50 to 500 | –
Cc1ncc(-c2c(-c3ccc(C#N)cc3)nc(OC[C@@H]3CCCN(C)C3)c3nccn23)cc1C#N [Example 117, 5-(6-(4-cyanophenyl)-8-{[(3R)-1-methylpiperidin-3-yl]methoxy}imidazo[1,2-a]pyrazin-5-yl)-2-methylnicotinonitrile] | 50 to 500 | –
CN(C)[C@H]1CCN(c2nc(-c3ccc(C#N)cc3)c(-c3ccc(N4CCCC4=O)nc3)n3ccnc23)C1 [Example 104, 4-{8-[(3S)-3-(dimethylamino)pyrrolidin-1-yl]-5-[6-(2-oxopyrrolidin-1-yl)pyridin-3-yl]imidazo[1,2-a]pyrazin-6-yl}benzonitrile] | 50 to 500 | –
CN1CCC[C@@H](COc2nc(-c3ccc(C#N)cc3)c(-c3cc(F)c(CO)c(F)c3)n3ccnc23)C1 [Example 83, 4-(5-[3,5-difluoro-4-(hydroxymethyl)phenyl]-8-{[(3R)-1-methylpiperidin-3-yl]methoxy}imidazo[1,2-a]pyrazin-6-yl)benzonitrile] | 50 to 500 | –
CCN1CCC[C@@H](COc2nc(-c3ccc(C#N)cc3)c(-c3ccc4c(c3)oc(=O)n4C)n3ccnc23)C1 [Example 63, 4-[8-{[(3R)-1-ethylpiperidin-3-yl]methoxy}-5-(3-methyl-2-oxo-2,3-dihydro-1,3-benzoxazol-6-yl)imidazo[1,2-a]pyrazin-6-yl]benzonitrile] | 50 to 500 | –
Cc1ccc(-c2c(-c3ccc(C#N)cc3)nc(C(=O)NCC3CNC3)c3nccn23)cc1 [Example 24, N-(azetidin-3-ylmethyl)-6-(4-cyanophenyl)-5-(4-methylphenyl)imidazo[1,2-a]pyrazine-8-carboxamide] | 50 to 500 | –
Cc1ccc(-c2c(-c3ccc(C#N)cc3)nc(OC[C@@H]3CCCN(C)C3)c3nccn23)cc1CN1CCN(S(C)(=O)=O)CC1 [Example 71, 4-(5-(4-methyl-3-{[4-(methylsulfonyl)piperazin-1-yl]methyl}phenyl)-8-{[(3R)-1-methylpiperidin-3-yl]methoxy}imidazo[1,2-a]pyrazin-6-yl)benzonitrile] | 50 to 500 | –
Cc1cc(-c2c(-c3ccc(C#N)cc3)nc(OC[C@@H]3CCCN(C)C3)c3nccn23)ccc1C(C)O (stereo partly drawn) [Example 86, 4-(5-[4-(1-hydroxyethyl)-3-methylphenyl]-8-{[(3R)-1-methylpiperidin-3-yl]methoxy}imidazo[1,2-a]pyrazin-6-yl)benzonitrile] | 50 to 500 | –
Cc1ccc(-c2c(-c3ccc(C#N)cc3)nc(N(C)C(=O)N3CC[C@H](N(C)C)C3)c3nccn23)cc1 [Example 22, (3S)—N-[6-(4-cyanophenyl)-5-(4-methylphenyl)imidazo[1,2-a]pyrazin-8-yl]-3-(dimethylamino)-N-methylpyrrolidine-1-carboxamide] | 500 to 1000 | –
CN1CCC[C@@H](COc2nc(-c3ccc(C#N)cc3)c(-c3ccc4c(c3)OCCO4)n3ccnc23)C1 [Example 50, 4-(5-(2,3-dihydro-1,4-benzodioxin-6-yl)-8-{[(3R)-1-methylpiperidin-3-yl]methoxy}imidazo[1,2-a]pyrazin-6-yl)benzonitrile] | 50 to 500 | –
Cc1ccc(-c2c(-c3ccc(C#N)cc3)nc(C(=O)NC3CN(C)C3)c3nccn23)cc1 [Example 25, 6-(4-cyanophenyl)-N-(1-methylazetidin-3-yl)-5-(4-methylphenyl)imidazo[1,2-a]pyrazine-8-carboxamide] | 50 to 500 | –
COC(=O)N(C)c1ccc(-c2c(-c3ccc(C#N)cc3)nc(OC[C@@H]3CCCN(C)C3)c3nccn23)cc1 [Example 77] | 50 to 500 | –
CN1CCC[C@@H](COc2nc(-c3ccc(C#N)cc3)c(-c3ccc4c(c3)OCC(=O)N4C)n3ccnc23)C1 [Example 49, 4-(5-(4-methyl-3-oxo-3,4-dihydro-2H-1,4-benzoxazin-7-yl)-8-{[(3R)-1-methylpiperidin-3-yl]methoxy}imidazo[1,2-a]pyrazin-6-yl)benzonitrile] | 50 to 500 | –

Compound | IC50 [nM] | IC50 [1] [nM]
Cc1ccc(-c2c(-c3ccc(C#N)cc3)nc(NC3CCN(C)CC3)c3nccn23)cc1 [Example 17, 4-{5-(4-methylphenyl)-8-[(1-methylpiperidin-4-yl)amino]imidazo[1,2-a]pyrazin-6-yl}benzonitrile] | 50 to 500 | –
CN1C(=O)CCc2ccc(-c3c(-c4ccc(C#N)cc4)nc(N4CCC(N(C)C)CC4)c4nccn34)cc21 [Example 108, 4-[8-[4-(dimethylamino)piperidin-1-yl]-5-(1-methyl-2-oxo-1,2,3,4-tetrahydroquinolin-7-yl)imidazo[1,2-a]pyrazin-6-yl]benzonitrile] | 50 to 500 | –
COc1cc(-c2c(-c3ccc(C#N)cc3)nc(N3CCC(N(C)C)CC3)c3nccn23)cnc1C [Example 116, 4-[8-[4-(dimethylamino)piperidin-1-yl]-5-(5-methoxy-6-methylpyridin-3-yl)imidazo[1,2-a]pyrazin-6-yl]benzonitrile] | 50 to 500 | –
CN1CCC[C@@H](COc2nc(-c3ccc(C#N)cc3)c(-c3ccc4c(c3)CC(O)C4)n3ccnc23)C1 (single isomer, unassigned) [78 (peak 1)] | – | < 50
CN1CCC[C@@H](COc2nc(-c3ccc(C#N)cc3)c(-c3ccc(CN4CCOCC4)cc3)n3ccnc23)C1 [Example 75, 4-{8-{[(3R)-1-methylpiperidin-3-yl]methoxy}-5-[4-(morpholin-4-ylmethyl)phenyl]imidazo[1,2-a]pyrazin-6-yl}benzonitrile] | 50 to 500 | –
Cc1ccc(-c2c(-c3ccc(C#N)cc3)nc(OCCCN(C)C)c3nccn23)cc1 [Example 8, 4-[8-[3-(dimethylamino)propoxy]-5-(4-methylphenyl)imidazo[1,2-a]pyrazin-6-yl]benzonitrile] | 50 to 500 | –
CN1CCC[C@@H](COc2nc(-c3ccc(C#N)cc3)c(-c3ccc(N(C)C)nc3)n3ccnc23)C1 [Example 51, 4-(5-[6-(dimethylamino)pyridin-3-yl]-8-{[(3R)-1-methylpiperidin-3-yl]methoxy}imidazo[1,2-a]pyrazin-6-yl)benzonitrile] | 50 to 500 | –
Cc1ccc(-c2c(-c3ccc(C#N)cc3)nc(NCCC3CCCN3C)c3nccn23)cc1 (stereo not shown) [Example 16, 4-(5-(4-methylphenyl)-8-{[2-(1-methylpyrrolidin-2-yl)ethyl]amino}imidazo[1,2-a]pyrazin-6-yl)benzonitrile] | 50 to 500 | –
N#Cc1ccc(-c2nc(OC[C@@H]3CCNC3)c3nccn3c2-c2ccc(Cl)cc2)cc1 [Example 27, 4-{5-(4-chlorophenyl)-8-[(3R)-pyrrolidin-3-ylmethoxy]imidazo[1,2-a]pyrazin-6-yl}benzonitrile] | 50 to 500 | –
CN1CCC[C@@H](COc2nc(-c3ccc(C#N)cc3)c(-c3ccc4c(c3)CC(O)C4)n3ccnc23)C1 (single isomer, unassigned) [78 (peak 2)] | – | < 50
CCN1CCC[C@@H](COc2nc(-c3ccc(C#N)cc3)c(-c3cnc4c(ccn4C)c3)n3ccnc23)C1 [Example 61, 4-[8-{[(3R)-1-ethylpiperidin-3-yl]methoxy}-5-(1-methyl-1H-pyrrolo[2,3-b]pyridin-5-yl)imidazo[1,2-a]pyrazin-6-yl]benzonitrile] | 50 to 500 | –
CN1CCC[C@@H](COc2nc(-c3ccc(C#N)cc3)c(-c3ccc4scnc4c3)n3ccnc23)C1 [Example 55, 4-(5-(1,3-benzothiazol-5-yl)-8-{[(3R)-1-methylpiperidin-3-yl]methoxy}imidazo[1,2-a]pyrazin-6-yl)benzonitrile] | 50 to 500 | –
Cc1ccc(-c2cn3c(-c4ccc(C)cc4)c(-c4ccc(C#N)cc4)nc(OC[C@@H]4CCNC4)c3n2)cc1 [Example 35, 4-{2,5-bis(4-methylphenyl)-8-[(3R)-pyrrolidin-3-ylmethoxy]imidazo[1,2-a]pyrazin-6-yl}benzonitrile] | 50 to 500 | –
Cc1ccc(-c2c(-c3ccc(C#N)cc3)nc(CCN3CC[C@@H](N(C)C)C3)c3nccn23)cc1 [Example 6, 4-[8-{2-[(3R)-3-(dimethylamino)pyrrolidin-1-yl]ethyl}-5-(4-methylphenyl)imidazo[1,2-a]pyrazin-6-yl]benzonitrile] | 500 to 1000 | –
Cc1ccc(-c2c(-c3ccc(C#N)cc3)nc(N(C)CCCN(C)C)c3nccn23)cc1 [Example 15, 4-[8-[[3-(dimethylamino)propyl](methyl)amino]-5-(4-methylphenyl)imidazo[1,2-a]pyrazin-6-yl]benzonitrile] | 50 to 500 | –
